Assay [1] addresses histone acetyltransferase PCAF (Homo sapiens, UniProt Q92831). Nature of the assay: Filterbinding and gel (fluorography) HAT assay against PCAF. The class given is biochemical. The text has this: (§1) FIG. 1a: Effect of LTK20 on Histone Modifying Enzymes (Filterbinding Assay) Filterbinding Assay of LTK20 carried out with the Histone acetyltransferases p300, PCAF and Histone methyltransferases CARM1, G9a. Lane 1—histones alone, lane 2—Enzyme control, lane 3—DMSO control, lane 4-5, LTK20 in increasing concentration.
(§2) FIG. 1b: Effect of LTK20 on Histone Modifying Enzymes (Fluorography) Gel Assay of LTK20 carried out with Histone acetyltransferases p300, PCAF and Histone methyltransferases CARM1, G9a. Lane 1—histones alone, lane 2—Enzyme control, lane 3—DMSO control, lane 4 & 5—LTK20 in increasing concentration.
(§3) (2,3,7,8-TETRAHYDROXY[1]BENZOPYRANO[5,4,3(DE)[1]BENZOPYRAN5,10-DIONE) was identified as a specific inhibitor of the arginine methyltransferase CARM1 with an IC50 of 20 μM, both by filterbinding (FIG. 1a) and fluorography assays (FIG. 1b).

Assay [2] concerns CARM1 methylation sites on histone H3, R17 and R26 in HeLa cells. Nature of the assay: HeLa cells, immunofluorescence analysis. The class given is cell-based. The conditions noted are these: 50 μM, 24 hours. The protocol:
FIGS. 3c and 3d: Immunofluorescence Analysis of LTK20 Treated HeLa Cells
In vivo characterization was done by treating HeLa cells with the molecule at 50 μM concentration for a period of 24 hours, and the cells were probed with antibodies against CARM1 methylation sites on histone H3, R17 and R26 and were visualized by anti rabbit alexa fluor 488 antibody.

Assay [3] deals with CARM1 methylation sites on histone H3, R17 and R26 (Homo sapiens, UniProt P68431). Nature of the assay: In vitro CARM1 methylation reaction, western analysis with site-specific antibodies. In kind it is biochemical. Here is the method: (§4) FIGS. 3a and 3b: Preferential Inhibition of CARM1 Mediated Methylation Site-specific inhibition of arginine methylation of histone H3 observed in the presence of LTK20 both in vitro and in vivo. H3R17 and H3R26 are both CARM1 methylation sites on histone H3.
In vitro CARM1 methylation reaction was carried out in the presence or absence of inhibitors, and probed with antibodies against the specific CARM1 methylation sites on histone H3, R17 and R26.

Assay [4] concerns the target T1, CARM1 (Homo sapiens, UniProt Q86X55).
T1 sequence (Q86X55 1-608): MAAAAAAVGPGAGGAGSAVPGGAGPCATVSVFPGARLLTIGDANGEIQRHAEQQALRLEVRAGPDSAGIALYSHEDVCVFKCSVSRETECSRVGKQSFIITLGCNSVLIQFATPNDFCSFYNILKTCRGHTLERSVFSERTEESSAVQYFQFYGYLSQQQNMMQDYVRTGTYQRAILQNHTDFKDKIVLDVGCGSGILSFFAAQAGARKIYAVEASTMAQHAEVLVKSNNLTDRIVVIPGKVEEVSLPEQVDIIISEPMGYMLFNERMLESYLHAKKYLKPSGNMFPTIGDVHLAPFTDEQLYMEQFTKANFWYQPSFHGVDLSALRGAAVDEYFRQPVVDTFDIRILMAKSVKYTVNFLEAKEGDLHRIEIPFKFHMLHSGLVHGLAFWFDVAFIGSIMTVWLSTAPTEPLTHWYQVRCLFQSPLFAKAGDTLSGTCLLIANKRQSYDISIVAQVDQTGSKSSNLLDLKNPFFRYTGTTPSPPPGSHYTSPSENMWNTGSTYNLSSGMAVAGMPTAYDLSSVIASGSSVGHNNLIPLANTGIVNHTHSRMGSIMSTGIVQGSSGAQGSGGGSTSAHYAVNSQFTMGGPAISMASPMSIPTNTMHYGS
Nature of the assay: Isothermal Calorimetric Titration with enzyme CARM1. The class given is binding. The conditions noted are these: enzyme in cell titrated against inhibitor. From the text: (§5) The pattern of inhibition is uncompetitive indicating the mode of inhibition is via the Enzyme-Substrate complex, the binding of the inhibitor has been characterized by Isothermal Calorimetric Titration wherein either the substrate (histone H3) or enzyme (CARM1) was taken in the cell and titrated against the inhibitor (2,3,7,8TETRAHYDROXY[1]BENZOPYRANO[5,4,3(DE)[1]BENZOPYRAN5,10-DIONE).

For assay [5], the target named is T2, lysine methyltransferase G9a (Homo sapiens, UniProt Q96KQ7).
T2 sequence (Q96KQ7 1-1210): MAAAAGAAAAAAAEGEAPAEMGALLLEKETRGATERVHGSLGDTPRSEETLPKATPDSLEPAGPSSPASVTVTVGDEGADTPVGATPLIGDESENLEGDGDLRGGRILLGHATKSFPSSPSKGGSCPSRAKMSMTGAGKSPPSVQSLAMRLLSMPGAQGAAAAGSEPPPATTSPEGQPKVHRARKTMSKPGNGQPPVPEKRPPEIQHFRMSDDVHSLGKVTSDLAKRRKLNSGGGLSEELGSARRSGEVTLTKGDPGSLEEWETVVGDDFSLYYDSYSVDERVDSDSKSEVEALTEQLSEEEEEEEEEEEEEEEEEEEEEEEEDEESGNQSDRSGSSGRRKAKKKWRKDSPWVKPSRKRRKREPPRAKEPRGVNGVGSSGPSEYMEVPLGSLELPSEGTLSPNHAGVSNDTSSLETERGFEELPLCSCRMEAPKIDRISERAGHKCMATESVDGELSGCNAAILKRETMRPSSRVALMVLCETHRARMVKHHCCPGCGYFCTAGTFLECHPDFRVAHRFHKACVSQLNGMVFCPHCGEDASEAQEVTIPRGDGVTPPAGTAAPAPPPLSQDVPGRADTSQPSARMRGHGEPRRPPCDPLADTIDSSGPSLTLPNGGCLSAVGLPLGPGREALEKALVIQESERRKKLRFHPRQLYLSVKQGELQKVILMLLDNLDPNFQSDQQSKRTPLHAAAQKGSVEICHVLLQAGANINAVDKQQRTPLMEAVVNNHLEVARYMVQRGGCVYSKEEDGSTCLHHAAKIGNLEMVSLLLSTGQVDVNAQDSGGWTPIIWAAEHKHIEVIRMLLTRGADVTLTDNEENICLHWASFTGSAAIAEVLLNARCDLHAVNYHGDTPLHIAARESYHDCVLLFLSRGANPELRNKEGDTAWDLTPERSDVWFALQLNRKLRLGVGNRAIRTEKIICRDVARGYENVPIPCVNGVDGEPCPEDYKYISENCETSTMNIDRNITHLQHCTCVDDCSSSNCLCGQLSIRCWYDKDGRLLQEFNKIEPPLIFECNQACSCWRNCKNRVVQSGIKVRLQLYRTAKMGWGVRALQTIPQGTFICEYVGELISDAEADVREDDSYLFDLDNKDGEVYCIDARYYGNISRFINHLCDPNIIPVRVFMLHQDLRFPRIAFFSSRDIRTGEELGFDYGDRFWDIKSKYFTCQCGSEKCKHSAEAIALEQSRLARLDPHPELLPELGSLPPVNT
Kind of assay: Filterbinding and gel (fluorography) HMTase assay against G9a. In kind it is biochemical.
Excerpt: as §1, §2, §3

Assay [6] deals with histone acetyltransferase p300 (Homo sapiens, UniProt Q09472). Nature of the assay: Filterbinding and gel (fluorography) HAT assay against p300. In kind it is biochemical.
Excerpt: as §1, §2, §3

The next assay concerns U2OS cells. Kind of assay: Modulation of p53 and p21 protein levels in U2OS cells by western analysis. In kind it is cell-based. As to conditions: for p21 levels: UV irradiated U2OS cells, vs DMSO control. The text has this:
FIG. 4: Immunoblot Analysis with p21 Antibody UV irradiated U2OS cells treated with or without inhibitors. The lysate was probed with antibody against p21. p21 levels show an increase in the presence of LTK20 as compared to the DMSO control.
Physiological effect of the inhibitor was characterized by selecting the p53 system, since CARM1 mediated histone methylation is known to cooperatively enhance the transcriptional activation of p53 responsive genes. […] U2OS, which is a p53 positive cell line was used for the assay, and on treatment with molecule at 50 μM concentration for a period of 24 hours, p53 levels were altered. Since, the p53 responsive genes had to be assayed, p21 was selected (there is no apoptosis, therefore the apoptosis genes were not selected). UV irradiated cells were treated with (2,3,7,8-TETRAHYDROXY[1]BENZOPYRANO[5,4,3(DE)[1]BENZOPYRAN5,10-DIONE) for a period of 24 hours and the lysate was probed with antibody against p21. […] This clearly indicates a possible implication of this molecule in the tumor suppressor p53 mediated transcriptional activation.

In another assay the target is histone H3 (Homo sapiens, UniProt P68431). Kind of assay: Isothermal Calorimetric Titration with substrate histone H3. The class given is binding. As to conditions: substrate in cell titrated against inhibitor.
Excerpt: FIG. 2: Binding Isotherm of Histone H3 with LTK20 Isothermal Calorimetric Titration carried out with the protein histone H3 and the ligand LTK20, which is the inhibitor.
as §5
(In general: ITC needs no label: the signal is the heat of the interaction.)

Assay [7] concerns the target T1, CARM1. Kind of assay: Kinetic analysis of the pattern of inhibition of CARM1 methylation of histone H3. The class given is biochemical. The conditions noted are these: recombinant histone H3 and tritiated SAM varied; two inhibitor concentrations. The protocol: Since the inhibitor is specific to CARM1 mediated methylation of histones which is directed to the histone H3, histone H3 was used as the substrate for the kinetic analysis. Initially, the inhibition was confirmed using the recombinant histone as the substrate. CARM1 methylation reaction was carried out using increasing concentration of histone H3 and the methyl group donor, tritiated SAM keeping the enzyme concentration constant. Two different inhibitor concentrations were assayed.

For assay [8], the system named is CARM1 methylation sites on histone H3, R17 and R26 in HeLa cells. Nature of the assay: HeLa cells, western analysis of acid extracted histones. In kind it is cell-based. As to conditions: for Methylation of H3R17: 50 μM, 24 hours. Here is the method:
as §4
In vivo characterization was done by treating HeLa cells with the molecule at 50 μM concentration for a period of 24 hours, and the acid extracted histones were probed with antibodies against CARM1 methylation sites on histone H3, R17 and R26.

Assay [9] addresses T3, arginine methyltransferase CARM1 (Homo sapiens, UniProt Q86X55).
T3 sequence (Q86X55 1-608): T1 sequence (Q86X55 1-608)
Nature of the assay: Filterbinding and gel (fluorography) HMTase assay against CARM1. In kind it is biochemical.
Excerpt: as §1, §2, §3

Setting [10] is: listed as (2,3,7,8-TETRAHYDROXY[1]BENZOPYRANO[5,4,3(DE)[1]BENZOPYRAN5,10-DIONE).
Where [11] appears, read: filterbinding, HeLa core histones.

Molecules are shown by their SMILES. Like-named read-outs stand apart in the source and are kept apart here.

Sequence of histone acetyltransferase p300 (Q09472 whole entry): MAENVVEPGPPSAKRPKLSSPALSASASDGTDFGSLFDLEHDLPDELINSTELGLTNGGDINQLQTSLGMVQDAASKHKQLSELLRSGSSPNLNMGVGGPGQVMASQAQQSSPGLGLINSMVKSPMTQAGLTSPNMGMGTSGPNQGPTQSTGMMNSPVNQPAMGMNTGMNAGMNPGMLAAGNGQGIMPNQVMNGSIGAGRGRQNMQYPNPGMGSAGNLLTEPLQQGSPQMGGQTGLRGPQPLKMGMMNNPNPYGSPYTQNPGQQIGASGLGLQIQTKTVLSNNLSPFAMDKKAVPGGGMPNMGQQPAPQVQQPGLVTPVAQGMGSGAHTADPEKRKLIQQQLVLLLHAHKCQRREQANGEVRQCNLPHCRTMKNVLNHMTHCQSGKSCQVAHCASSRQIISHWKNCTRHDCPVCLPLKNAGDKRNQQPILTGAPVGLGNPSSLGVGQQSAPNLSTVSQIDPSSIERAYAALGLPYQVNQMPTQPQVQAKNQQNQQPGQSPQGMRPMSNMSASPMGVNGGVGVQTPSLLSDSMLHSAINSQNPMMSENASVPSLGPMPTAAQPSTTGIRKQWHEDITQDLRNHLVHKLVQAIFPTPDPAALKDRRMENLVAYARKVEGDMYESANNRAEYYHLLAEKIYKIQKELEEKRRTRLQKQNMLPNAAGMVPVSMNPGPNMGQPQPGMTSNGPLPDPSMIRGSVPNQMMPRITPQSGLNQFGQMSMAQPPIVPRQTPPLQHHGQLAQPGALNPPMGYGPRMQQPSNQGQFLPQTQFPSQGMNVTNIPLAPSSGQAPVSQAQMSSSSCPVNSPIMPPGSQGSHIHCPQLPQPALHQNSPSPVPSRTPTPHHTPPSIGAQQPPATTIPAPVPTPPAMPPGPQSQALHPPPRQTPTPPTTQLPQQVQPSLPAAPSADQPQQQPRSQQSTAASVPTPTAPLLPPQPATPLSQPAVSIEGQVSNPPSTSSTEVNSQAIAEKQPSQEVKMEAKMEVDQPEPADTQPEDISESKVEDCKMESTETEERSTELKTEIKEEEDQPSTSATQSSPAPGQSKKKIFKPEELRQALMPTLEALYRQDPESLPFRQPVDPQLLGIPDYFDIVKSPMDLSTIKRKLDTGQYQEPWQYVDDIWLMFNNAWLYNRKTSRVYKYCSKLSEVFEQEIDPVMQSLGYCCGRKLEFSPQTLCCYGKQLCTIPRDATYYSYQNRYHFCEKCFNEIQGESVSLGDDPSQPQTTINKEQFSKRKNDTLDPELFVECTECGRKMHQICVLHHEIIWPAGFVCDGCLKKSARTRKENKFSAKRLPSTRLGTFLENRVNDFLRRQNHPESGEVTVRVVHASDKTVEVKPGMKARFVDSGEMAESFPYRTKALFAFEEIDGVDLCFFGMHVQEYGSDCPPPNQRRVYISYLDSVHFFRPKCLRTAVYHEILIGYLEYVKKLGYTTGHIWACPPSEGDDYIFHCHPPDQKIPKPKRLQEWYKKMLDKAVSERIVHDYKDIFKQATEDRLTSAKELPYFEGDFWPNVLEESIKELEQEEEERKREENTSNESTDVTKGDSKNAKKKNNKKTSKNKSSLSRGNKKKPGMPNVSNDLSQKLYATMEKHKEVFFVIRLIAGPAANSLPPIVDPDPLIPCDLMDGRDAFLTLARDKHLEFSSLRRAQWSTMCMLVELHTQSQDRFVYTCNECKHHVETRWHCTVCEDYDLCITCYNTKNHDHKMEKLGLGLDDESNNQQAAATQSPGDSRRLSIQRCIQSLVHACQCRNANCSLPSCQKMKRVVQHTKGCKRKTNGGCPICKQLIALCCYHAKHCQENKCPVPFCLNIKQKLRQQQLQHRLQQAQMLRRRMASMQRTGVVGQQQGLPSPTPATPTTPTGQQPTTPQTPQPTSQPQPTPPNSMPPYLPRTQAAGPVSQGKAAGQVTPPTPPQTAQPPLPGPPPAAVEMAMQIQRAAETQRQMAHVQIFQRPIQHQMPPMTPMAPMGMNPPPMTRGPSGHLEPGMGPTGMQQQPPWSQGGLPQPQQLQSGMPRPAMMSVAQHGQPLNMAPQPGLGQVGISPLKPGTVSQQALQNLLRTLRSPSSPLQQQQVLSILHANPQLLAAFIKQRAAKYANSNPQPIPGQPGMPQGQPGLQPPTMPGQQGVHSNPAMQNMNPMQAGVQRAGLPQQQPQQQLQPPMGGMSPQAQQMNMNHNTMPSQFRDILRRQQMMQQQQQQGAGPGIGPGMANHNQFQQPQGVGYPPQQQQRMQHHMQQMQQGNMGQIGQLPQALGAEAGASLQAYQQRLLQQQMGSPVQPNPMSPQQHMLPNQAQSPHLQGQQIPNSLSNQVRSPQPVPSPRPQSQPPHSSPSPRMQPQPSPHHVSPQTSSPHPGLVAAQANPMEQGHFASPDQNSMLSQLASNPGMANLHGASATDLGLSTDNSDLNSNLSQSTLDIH
Sequence of histone acetyltransferase PCAF (Q92831 whole entry): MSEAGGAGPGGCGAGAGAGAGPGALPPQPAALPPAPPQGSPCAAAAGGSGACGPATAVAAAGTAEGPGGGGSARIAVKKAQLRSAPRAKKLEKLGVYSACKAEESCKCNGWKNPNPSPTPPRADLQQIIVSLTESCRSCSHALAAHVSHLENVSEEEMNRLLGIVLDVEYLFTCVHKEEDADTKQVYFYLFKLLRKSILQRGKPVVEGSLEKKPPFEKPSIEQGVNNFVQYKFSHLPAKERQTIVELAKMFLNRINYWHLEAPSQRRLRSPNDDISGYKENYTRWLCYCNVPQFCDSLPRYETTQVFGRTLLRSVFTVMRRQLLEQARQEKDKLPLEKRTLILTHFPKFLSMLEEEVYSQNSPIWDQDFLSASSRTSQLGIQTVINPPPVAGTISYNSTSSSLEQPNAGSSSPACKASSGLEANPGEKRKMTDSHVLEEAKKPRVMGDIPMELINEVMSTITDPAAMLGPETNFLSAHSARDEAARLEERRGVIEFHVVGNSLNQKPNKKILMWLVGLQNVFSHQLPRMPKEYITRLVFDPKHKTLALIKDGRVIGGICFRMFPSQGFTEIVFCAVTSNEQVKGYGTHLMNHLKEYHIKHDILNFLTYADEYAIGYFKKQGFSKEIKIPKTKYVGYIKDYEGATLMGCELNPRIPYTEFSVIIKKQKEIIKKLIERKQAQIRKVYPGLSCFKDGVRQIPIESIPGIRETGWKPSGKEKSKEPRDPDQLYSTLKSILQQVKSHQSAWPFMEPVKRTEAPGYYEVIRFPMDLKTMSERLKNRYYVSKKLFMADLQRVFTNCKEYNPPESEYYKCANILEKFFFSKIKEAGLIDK

By IC50 is commonly meant the concentration needed to halve the response being measured. Low readings indicate higher potency, high ones lower potency. `O=c1oc2c(O)c(O)cc3c(=O)oc4c(O)c(O)cc1c4c23` [LTK20, (2,3,7,8-TETRAHYDROXY[1]BENZOPYRANO [5,4,3(DE)[1]BENZOPYRAN 5,10-DIONE)]: the “Effect on PCAF activity (filterbinding assay)” value in assay [1] (filterbinding) is recorded as “does not act on other enzymes”. Also, the “Effect on PCAF activity (gel assay, fluorography)” value in assay [1] (fluorography) is “does not act on other enzymes”. The “Methylation of H3R17” value in [2] is reported as “Site-specific inhibition of H3R17”; in assay [3] it was “inhibited”; in assay [3] (setting [10]), “Site-specific inhibition of H3R17”; in [8] it was “inhibited”; in [8] (setting [10]), “Site-specific inhibition of H3R17”. Also, the “Methylation of H3R26” value in assay [3] and in [8] was “getting methylated” each time. For the same molecule, at CARM1 [4], the “Binding to CARM1 (ITC)” value is listed as “no binding of the molecule to the enzyme”. In addition, the “Effect on G9a activity (filterbinding assay)” value in assay [5] (setting [11]) is given as “does not act on other enzymes”. Moreover, the “Effect on G9a activity (gel assay, fluorography)” value in assay [5] (fluorography) is “does not act on other enzymes”. Moreover, in assay [6] (filterbinding), the “Effect on p300 activity (filterbinding assay)” value is given as “does not act on other enzymes”. In addition, in assay [6] (fluorography), the “Effect on p300 activity (gel assay, fluorography)” value was “does not act on other enzymes”. In addition, the Apoptosis entry in the assay on U2OS cells (U2OS cells) is reported as “no apoptosis”. Besides, the p53 levels result in the assay with U2OS cells (U2OS, 50 μM, 24 hours) is reported as “altered”. The p21 levels result with U2OS cells (24 hours) is “increase”; in the assay on U2OS cells (24 hours, listed as (2,3,7,8-TETRAHYDROXY[1]BENZOPYRANO[5,4,3(DE)[1]BENZOPYRAN5,10-DIONE)), “increase in p21 levels”. Also, the “Binding to histone H3 (ITC)” value on histone H3 is reported as “fits to the two sequential binding site model”; at histone H3 (listed as (2,3,7,8TETRAHYDROXY[1]BENZOPYRANO[5,4,3(DE)[1]BENZOPYRAN5,10-DIONE)), “binds to the substrate at two sequential binding sites”. At CARM1 [7], the “Pattern of CARM1 methylation inhibition” value is on record as “uncompetitive”. In assay [9] (HeLa core histones as substrate, both filterbinding and fluorography assays), this molecule yielded an IC50 of 20 µM. In assay [9] (setting [11]), the “Effect on CARM1 activity (filterbinding assay)” value was “inhibits CARM1 activity”. Also, in assay [9] (fluorography), the “Effect on CARM1 activity (gel assay, fluorography)” value is recorded as “inhibits CARM1 activity”.

These data come from US8003698B2, “Site-specific inhibitors of histone methyltransferase (HMTASE) and process of preparation thereof” (Jawaharlal Nehru Centre for Advanced Scientific Research, priority 2006, dated 2011).
